In patent US8946197B2, “Transglutaminase TG2 inhibitors, pharmaceutical compositions, and methods of use thereof” (CHDI Foundation, Inc., priority 2009, dated 2015):
“And” between values parts separate entries of the source, which are not always exact repeats. Equal entries are not always repeated.

target: T1, human TG2 (Homo sapiens, UniProt P21980); assay: fluorescent screening assay for human TG2; format: biochemical; conditions: 20 nM TG2, 8 μM N,N-dimethylated Casein, 16 μM KxD, pH 7.4, 37° C
T1 sequence (P21980 1-687): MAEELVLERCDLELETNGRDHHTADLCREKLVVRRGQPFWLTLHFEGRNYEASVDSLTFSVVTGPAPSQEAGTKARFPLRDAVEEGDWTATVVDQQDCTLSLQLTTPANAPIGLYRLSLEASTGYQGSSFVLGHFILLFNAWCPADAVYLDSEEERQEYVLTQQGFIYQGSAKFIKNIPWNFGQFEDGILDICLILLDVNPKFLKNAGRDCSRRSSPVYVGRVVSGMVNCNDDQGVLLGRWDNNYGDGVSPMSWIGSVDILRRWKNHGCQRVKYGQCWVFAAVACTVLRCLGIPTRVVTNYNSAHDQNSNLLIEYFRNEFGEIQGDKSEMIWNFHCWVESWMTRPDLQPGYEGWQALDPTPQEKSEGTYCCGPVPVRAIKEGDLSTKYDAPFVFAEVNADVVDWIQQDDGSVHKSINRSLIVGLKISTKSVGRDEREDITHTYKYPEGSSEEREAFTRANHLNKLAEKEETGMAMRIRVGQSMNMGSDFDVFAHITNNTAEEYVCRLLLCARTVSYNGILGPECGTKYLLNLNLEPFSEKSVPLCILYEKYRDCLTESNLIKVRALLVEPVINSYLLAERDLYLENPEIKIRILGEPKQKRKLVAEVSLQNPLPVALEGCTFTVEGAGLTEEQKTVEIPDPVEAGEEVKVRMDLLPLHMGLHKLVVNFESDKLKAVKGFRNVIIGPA
Procedure: (§1) The fluorescent screening assay for human TG2 was performed as described herein: Assay conditions were 20 nM TG2, 8 μM N,N-dimethylated Casein (NMC) and 16 μM K×D (used for all transglutaminase assays) in 25 mM Hepes, pH 7.4, 250 mM NaCl, 2 mM MgCl2, 0.5 mM CaCl2, 0.2 mM DTT, 0.05% Pluronic F-127 at 37° C. A time point was taken with a microplate reader (Safire or Ultra, Tecan; ex: 350 nm, em: 535 nm) every 3 minutes for up to 2 hours and the initial linear reaction progress was used to determine the reaction velocity as a measure for enzyme activity. Assay conditions were identical for human TG6 and similar for human TG1 and mouse TG2 apart from enzyme concentration (mTG2 at 5 nM; TG1 at 10 nM) and CaCl2 concentration (0.2 mM for mTG2; 0.05 mM for TG1). Factor XIIIa was activated using 0.1 μg/μl thrombin (Sigma) in 35 mM Tris pH 8.0 for 20 min at 30° C. and the transamidation reaction was performed with 20 nM Factor XIIIa in 50 mM Tris pH 8.0, 1.25 mM CaCl2, 0.05% Pluronic, 0.2 mM DTT. TG3 was activated with 0.02 μg/μl thrombin under the same conditions as Factor XIIIa and assay conditions were 10 nM TG3 in 50 mM Hepes, pH 8, 20 mM CaCl2, 0.2 mM DTT, 0.05% Pluronic F-127.
as §1, with “A” for “The”

Structure (SMILES) | IC50
C=CC(=O)Nc1ccc(S(=O)(=O)N2CCN(c3nc(C)cc(C)n3)CC2)cc1 [N-{4-[4-(4,6-Dimethyl-pyrimidin-2-yl)-piperazine-1-sulfonyl]-phenyl}-acrylamide] | < 0.1 µM and 0.1 to 1 µM
C=C(F)C(=O)Nc1ccc(S(=O)(=O)N2CCN(C(=O)OC(C)(C)C)CC2)cc1 [4-[4-(2-Fluoro-acryloylamino)-benzenesulfonyl]-piperazine-1-carboxylic acid tert-butyl ester] | 1 to 25 µM
C=CC(=O)Nc1ccc(S(=O)(=O)N2CCN(Cc3ccc(-c4ccccc4)cc3)CC2)cc1 [N-[4-(4-Biphenyl-4-ylmethyl-piperazine-1-sulfonyl)-phenyl]-acrylamide] | 1 to 25 µM
C=CC(=O)Nc1ccc(S(=O)(=O)N(Cc2ccccc2)Cc2ccc(Cl)cc2)cc1 [N-{4-[Benzyl-(4-chloro-benzyl)-sulfamoyl]-phenyl}-acrylamide] | 1 to 25 µM
C=CC(=O)Nc1ccc(S(=O)(=O)N2CCC(c3ccco3)=Nc3ccccc32)cc1 [N-[4-(4-Furan-2-yl-2,3-dihydro-benzo[β][1,4]diazepine-1-sulfonyl)-phenyl]-acrylamide] | 1 to 25 µM
C=CC(=O)Nc1cccc(S(=O)(=O)N2CCN(Cc3ccccc3)CC2)c1 [N-[3-(4-Benzyl-piperazine-1-sulfonyl)-phenyl]-acrylamide] | 1 to 25 µM
C=CC(=O)Nc1ccc(S(=O)(=O)N2CCNCC2)c(OC)c1 [N-[3-Methoxy-4-(piperazine-1-sulfonyl)-phenyl]-acrylamide] | 1 to 25 µM
C=CC(=O)Nc1ccc(S(=O)(=O)NC(C)C(=O)N2CCCCC2)cc1 (centres unmarked) [N-[4-(1-Methyl-2-oxo-2-piperidin-1-yl-ethylsulfamoyl)-phenyl]-acrylamide] | 1 to 25 µM
C=CC(=O)Nc1ccc(S(=O)(=O)N2CCN(C(=O)C34CC5CC(CC(C5)C3)C4)CC2)cc1 [N-{4-[4-(Adamantane-1-carbonyl)-piperazine-1-sulfonyl]-phenyl}-acrylamide] | 0.1 to 1 µM and < 0.1 µM
C=CC(=O)Nc1ccc(S(=O)(=O)N2CCN(C34CC5CC(CC(C5)C3)C4)CC2)cc1 [N-[4-(4-Adamantan-1-yl-piperazine-1-sulfonyl)-phenyl]-acrylamide] | 1 to 25 µM
C=CC(=O)Nc1ccc(S(=O)(=O)N2CCN(C(=O)OC(C)(C)C)CC2)c(C)c1 [4-(4-Acryloylamino-2-methyl-benzenesulfonyl)-piperazine-1-carboxylic acid tert-butyl ester] | 1 to 25 µM
CC(C)(C)OC(=O)N1CCN(S(=O)(=O)c2ccc(NC(=O)/C=C\Cl)cc2)CC1 [(Z)-tert-butyl 4-(4-(3-chloroacrylamido)phenylsulfonyl)piperazine-1-carboxylate] | 0.1 to 1 µM
CC#CC(=O)Nc1ccc(S(=O)(=O)N2CCN(C(=O)OC(C)(C)C)CC2)cc1 [4-[4-(1-Oxo-but-2-ynylamino)-benzenesulfonyl]-piperazine-1-carboxylic acid tert-butyl ester] | 1 to 25 µM
C=CC(=O)Nc1ccc(S(=O)(=O)N(C)Cc2ccc(CN3CCN(C)CC3)cc2)cc1 [N-(4-{Methyl-[4-(4-methyl-piperazin-1-ylmethyl)-benzyl]-sulfamoyl}-phenyl)-acrylamide] | 1 to 25 µM
C=CC(=O)Nc1cccc(S(=O)(=O)N2CCN(c3ccccc3)CC2)c1 [N-[3-(4-Phenyl-piperazine-1-sulfonyl)-phenyl]-acrylamide] | 1 to 25 µM
C=CC(=O)Nc1ccc(S(=O)(=O)N2CCC(C(=O)N3CCCCC3)CC2)cc1 [N-{4-[4-(Piperidine-1-carbonyl)-piperidine-1-sulfonyl]-phenyl}-acrylamide] | 0.1 to 1 µM and < 0.1 µM
C=CC(=O)Nc1ccc(S(=O)(=O)N2CCN(C(=O)OC(C)(C)C)C(c3ccco3)C2)cc1 (centres unmarked) [4-(4-Acryloylamino-benzenesulfonyl)-2-furan-2-yl-piperazine-1-carboxylic acid tert-butyl ester] | 0.1 to 1 µM and < 0.1 µM
C=CC(=O)Nc1ccc(S(=O)(=O)N2CCN(C(=O)N3CCCC4CCCCC43)CC2)cc1 (centres unmarked) [N-{4-[4-(Octahydro-quinoline-1-carbonyl)-piperazine-1-sulfonyl]-phenyl}-acrylamide] | 0.1 to 1 µM and < 0.1 µM
C=CC(=O)Nc1ccc(S(=O)(=O)N2CCc3cc(S(=O)(=O)N(C)C)ccc32)cc1 [N-[4-(5-Dimethylsulfamoyl-2,3-dihydro-indole-1-sulfonyl)-phenyl]-acrylamide] | 0.1 to 1 µM and < 0.1 µM

The next lines start with the values.

IC50 | Structure (SMILES)
0.1 to 1 µM and < 0.1 µM | C=CC(=O)Nc1ccc(S(=O)(=O)N2CCN(C(=O)OC3CCCC3)CC2)cc1 [4-(4-Acryloylamino-benzenesulfonyl)-piperazine-1-carboxylic acid cyclopentyl ester]
0.1 to 1 µM and < 0.1 µM | C=CC(=O)Nc1ccc(S(=O)(=O)N2CCN(C(=O)OCc3ccc(C)cc3)CC2)cc1 [4-(4-Acryloylamino-benzenesulfonyl)-piperazine-1-carboxylic acid 4-methyl-benzyl ester]
0.1 to 1 µM and < 0.1 µM | C=CC(=O)Nc1ccc(S(=O)(=O)N2CCN(C(=O)OCc3cccc(F)c3)CC2)cc1 [4-(4-Acryloylamino-benzenesulfonyl)-piperazine-1-carboxylic acid 3-fluoro-benzyl ester]
1 to 25 µM | C=CC(=O)Nc1ccc(S(=O)(=O)N2CCN(c3cccc(-c4ccccc4)c3)CC2)cc1 [N-[4-(4-Biphenyl-3-yl-piperazine-1-sulfonyl)-phenyl]-acrylamide]
< 0.1 µM and 0.1 to 1 µM | C=CC(=O)Nc1ccc(S(=O)(=O)N2CCN(c3nccc(OC)n3)CC2)cc1 [N-{4-[4-(4-Methoxy-pyrimidin-2-yl)-piperazine-1-sulfonyl]-phenyl}-acrylamide]
0.1 to 1 µM and < 0.1 µM | C=CC(=O)Nc1ccc(S(=O)(=O)N2CCN(C(=O)OC(C)C)CC2)cc1 [4-(4-Acryloylamino-benzenesulfonyl)-piperazine-1-carboxylic acid isopropyl ester]
< 0.1 µM and 0.1 to 1 µM | C=CC(=O)Nc1ccc(S(=O)(=O)N2CCN(c3ccc(C)cn3)CC2)cc1 [N-{4-[4-(5-Methyl-pyridin-2-yl)-piperazine-1-sulfonyl]-phenyl}-acrylamide]
0.1 to 1 µM and < 0.1 µM | C=CC(=O)Nc1ccc(S(=O)(=O)N2CCN(C(=O)OCc3ccccc3)[C@@H](C)C2)cc1 [4-(4-Acryloylamino-benzenesulfonyl)-2-methyl-piperazine-1-carboxylic acid benzyl ester]
0.1 to 1 µM and < 0.1 µM | C=CC(=O)Nc1ccc(S(=O)(=O)N2CCN(C(=O)C3CC3c3ccccc3)CC2)cc1 (centres unmarked) [N-{4-[4-(2-Phenyl-cyclopropanecarbonyl)-piperazine-1-sulfonyl]-phenyl}-acrylamide]
0.1 to 1 µM and < 0.1 µM | C=CC(=O)Nc1ccc(S(=O)(=O)N2CCN(C(=O)OCc3ccccc3C)CC2)cc1 [4-(4-Acryloylamino-benzenesulfonyl)-piperazine-1-carboxylic acid 2-methyl-benzyl ester]
1 to 25 µM | C=CC(=O)Nc1ccc(S(=O)(=O)N2CCN(c3ccc4ccccc4c3)CC2)cc1 [N-[4-(4-Naphthalen-2-yl-piperazine-1-sulfonyl)-phenyl]-acrylamide]
0.1 to 1 µM and < 0.1 µM | C=CC(=O)Nc1ccc(S(=O)(=O)N2CCN(C(=O)OCc3cccc(OC)c3OC)CC2)cc1 [4-(4-Acryloylamino-benzenesulfonyl)-piperazine-1-carboxylic acid 2,3-dimethoxy-benzyl ester]
0.1 to 1 µM and < 0.1 µM | C=CC(=O)Nc1ccc(S(=O)(=O)N2CCN(C(=O)CCc3ccccn3)CC2)cc1 [N-{4-[4-(3-Pyridin-2-yl-propionyl)-piperazine-1-sulfonyl]-phenyl}-acrylamide]
